Source: patent US20230295130A1, “COMPOUND USEFUL AS CDK7 KINASE INHIBITOR AND USE THEREOF” (TYK MEDICINES, INC., priority 2020, published 2023)

target: CDK12 (aa686-1082)/Cyclin K (Homo sapiens (Human), UniProt Q9NYV4); experiment: Enzyme activity test, mobility shift assay (Table 1); assay type: biochemical; conditions: not given
Description: (§1) The compound powder was dissolved in 100% DMSO to prepare a 10 mM storage solution. The storage solution was further diluted to 0.5 mM as the initial concentration, and continuously diluted 3 times to obtain 10 compound solutions with different concentrations. The compound and enzyme were pre-incubated for 0 minutes and 60 minutes, respectively, using duplicate detection. Compound Staurosporine having a structural formula of
(§2) was used as a positive control, and Mobility shift assay method was used to detect CDK kinase (such as CDK7, CDK9, CDK12 and CDK2) activity of the compounds.

CDK12 (aa686-1082)/Cyclin K, sequence (Q9NYV4 686-1082): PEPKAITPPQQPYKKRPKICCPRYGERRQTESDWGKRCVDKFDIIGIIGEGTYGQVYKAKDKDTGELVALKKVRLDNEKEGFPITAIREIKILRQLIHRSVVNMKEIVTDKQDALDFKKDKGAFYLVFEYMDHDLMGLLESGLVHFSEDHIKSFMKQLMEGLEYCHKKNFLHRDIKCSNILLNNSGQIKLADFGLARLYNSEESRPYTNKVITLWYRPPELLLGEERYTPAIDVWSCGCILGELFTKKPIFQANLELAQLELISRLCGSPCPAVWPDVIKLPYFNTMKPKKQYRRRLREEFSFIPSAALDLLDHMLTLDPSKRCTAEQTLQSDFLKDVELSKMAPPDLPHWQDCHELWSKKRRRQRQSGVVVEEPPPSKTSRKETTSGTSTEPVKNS
CDK12 (aa686-1082)/Cyclin K, sequence (O75909 whole entry partner, the tested form may be a part): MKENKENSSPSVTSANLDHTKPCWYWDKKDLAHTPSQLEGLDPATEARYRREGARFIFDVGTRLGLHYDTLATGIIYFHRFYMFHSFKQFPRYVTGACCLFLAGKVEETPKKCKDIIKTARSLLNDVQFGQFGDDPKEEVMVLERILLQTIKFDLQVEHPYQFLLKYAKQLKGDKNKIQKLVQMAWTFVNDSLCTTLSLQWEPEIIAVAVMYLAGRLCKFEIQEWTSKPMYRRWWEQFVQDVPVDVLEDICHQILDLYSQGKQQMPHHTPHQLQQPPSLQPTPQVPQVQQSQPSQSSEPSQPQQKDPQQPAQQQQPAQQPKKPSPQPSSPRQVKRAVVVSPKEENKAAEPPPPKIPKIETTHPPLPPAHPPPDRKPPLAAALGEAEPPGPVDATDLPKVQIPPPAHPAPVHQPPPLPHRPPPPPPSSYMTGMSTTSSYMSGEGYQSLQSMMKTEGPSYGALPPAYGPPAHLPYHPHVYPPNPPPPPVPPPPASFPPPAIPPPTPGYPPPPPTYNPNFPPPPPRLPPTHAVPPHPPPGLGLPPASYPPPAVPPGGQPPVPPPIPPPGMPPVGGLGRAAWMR

Compound | IC50 [nM]
CN[C@@H]1C[C@H]2O[C@@](C)([C@@H]1OC)n1c3ccccc3c3c4c(c5c6ccccc6n2c5c31)C(=O)NC4 [Staurosporine, reference compound] | > 500

same assay, conditions: 2 mM ATP; read-out: CDK12 kinase IC50

IC50 [nM] | Compound
> 500 | COC(=O)Nc1ccc2c(-c3nc(O[C@H]4CCCNC4)ncc3C(F)(F)F)c[nH]c2c1Br [Example T-02]

target: CDK9/Cyclin Tl (Homo sapiens (Human), UniProt P50750); experiment: as above; assay type: biochemical; conditions: 2 mM ATP; read-out: CDK9 kinase IC50
Sequence (P50750 whole entry): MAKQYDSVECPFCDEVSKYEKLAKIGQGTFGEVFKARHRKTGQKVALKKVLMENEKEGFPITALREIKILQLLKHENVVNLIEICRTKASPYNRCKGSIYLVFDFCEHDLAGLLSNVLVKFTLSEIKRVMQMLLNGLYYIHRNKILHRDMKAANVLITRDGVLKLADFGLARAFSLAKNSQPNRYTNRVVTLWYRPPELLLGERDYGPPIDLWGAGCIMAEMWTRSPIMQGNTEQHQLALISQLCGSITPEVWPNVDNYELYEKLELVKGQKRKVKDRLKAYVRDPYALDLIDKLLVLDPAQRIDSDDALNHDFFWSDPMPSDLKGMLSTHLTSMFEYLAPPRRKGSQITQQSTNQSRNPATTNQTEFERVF
Sequence (O60563 whole entry partner): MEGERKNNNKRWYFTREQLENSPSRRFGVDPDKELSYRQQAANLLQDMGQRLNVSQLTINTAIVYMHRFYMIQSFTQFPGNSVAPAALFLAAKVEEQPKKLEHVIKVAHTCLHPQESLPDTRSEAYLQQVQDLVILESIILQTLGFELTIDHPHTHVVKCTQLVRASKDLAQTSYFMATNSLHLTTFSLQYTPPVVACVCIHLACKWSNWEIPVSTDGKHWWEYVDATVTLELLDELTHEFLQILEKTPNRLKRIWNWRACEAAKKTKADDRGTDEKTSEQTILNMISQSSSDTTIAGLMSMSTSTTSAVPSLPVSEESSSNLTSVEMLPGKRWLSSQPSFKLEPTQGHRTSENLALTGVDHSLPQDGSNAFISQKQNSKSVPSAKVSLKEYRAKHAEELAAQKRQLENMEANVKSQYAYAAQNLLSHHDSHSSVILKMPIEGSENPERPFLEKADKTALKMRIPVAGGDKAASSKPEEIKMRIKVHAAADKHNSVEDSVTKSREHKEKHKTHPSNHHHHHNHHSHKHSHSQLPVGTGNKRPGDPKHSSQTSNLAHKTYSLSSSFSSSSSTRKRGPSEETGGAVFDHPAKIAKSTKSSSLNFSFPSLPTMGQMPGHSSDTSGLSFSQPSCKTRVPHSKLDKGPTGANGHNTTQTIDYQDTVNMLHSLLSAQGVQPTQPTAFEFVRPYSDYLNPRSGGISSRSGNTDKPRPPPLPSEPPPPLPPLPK
Description: as §1, with “detection.” for “detection. Compound Staurosporine having a structural formula of”
as §2

IC50 [nM] | Compound
> 500 | COC(=O)Nc1ccc2c(-c3nc(O[C@H]4CCCNC4)ncc3C(F)(F)F)c[nH]c2c1Br [Example T-02]

target: CDK2/Cyclin El (Homo sapiens (Human), UniProt P24941); experiment: as above; assay type: biochemical; conditions: 2 mM ATP; read-out: CDK2 kinase IC50
Description: as §1, with “detection.” for “detection. Compound Staurosporine having a structural formula of”
as §2

IC50 [nM] | Compound
> 500 | COC(=O)Nc1ccc2c(-c3nc(O[C@H]4CCCNC4)ncc3C(F)(F)F)c[nH]c2c1Br [Example T-02]

target: CDK7/Cyclin H/MAT1 kinase (Homo sapiens (Human), UniProt P50613); experiment: as above; assay type: biochemical; conditions: 2 mM ATP; pre-incubated 0 and 60 minutes
Sequence (P50613 whole entry): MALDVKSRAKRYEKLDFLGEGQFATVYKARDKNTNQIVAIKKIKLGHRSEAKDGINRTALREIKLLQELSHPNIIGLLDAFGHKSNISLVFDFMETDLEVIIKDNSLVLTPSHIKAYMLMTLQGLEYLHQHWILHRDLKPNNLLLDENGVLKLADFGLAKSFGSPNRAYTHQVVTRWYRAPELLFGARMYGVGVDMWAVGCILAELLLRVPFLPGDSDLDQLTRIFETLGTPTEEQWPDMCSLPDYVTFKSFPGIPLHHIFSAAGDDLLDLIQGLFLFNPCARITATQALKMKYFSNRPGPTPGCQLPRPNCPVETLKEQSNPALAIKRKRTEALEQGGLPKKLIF
Sequence (P51946 whole entry partner): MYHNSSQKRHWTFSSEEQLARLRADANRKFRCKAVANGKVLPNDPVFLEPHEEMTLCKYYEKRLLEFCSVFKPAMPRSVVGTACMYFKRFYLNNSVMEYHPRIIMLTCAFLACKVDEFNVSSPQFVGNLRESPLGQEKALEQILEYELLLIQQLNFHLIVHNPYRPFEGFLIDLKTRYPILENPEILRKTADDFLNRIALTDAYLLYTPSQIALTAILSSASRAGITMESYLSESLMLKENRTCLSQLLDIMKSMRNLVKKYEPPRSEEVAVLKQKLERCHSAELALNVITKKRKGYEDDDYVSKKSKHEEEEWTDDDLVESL
Sequence (P51948 whole entry partner): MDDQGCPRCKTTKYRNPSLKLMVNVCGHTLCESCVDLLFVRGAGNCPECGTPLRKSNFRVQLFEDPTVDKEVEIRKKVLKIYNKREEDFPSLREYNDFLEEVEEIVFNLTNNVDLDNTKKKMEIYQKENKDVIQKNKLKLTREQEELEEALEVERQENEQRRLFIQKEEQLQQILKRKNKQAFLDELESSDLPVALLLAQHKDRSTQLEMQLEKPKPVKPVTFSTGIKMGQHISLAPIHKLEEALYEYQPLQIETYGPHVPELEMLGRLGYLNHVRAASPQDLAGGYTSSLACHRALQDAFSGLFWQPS
Description: IC50 values of the compounds for CDK7 kinase were detected in Wuxi Biortus Biosciences Co. Ltd.
as §1, with “detection.” for “detection. Compound Staurosporine having a structural formula of”
as §2

IC50 [nM] | Compound
> 500 | COC(=O)Nc1ccc2c(-c3nc(N[C@H]4CCC[C@H](O)C4)ncc3C(F)(F)F)c[nH]c2c1Br [Compound T-50]
< 50 | COC(=O)N(C)c1ccc2c(-c3nc(N[C@H]4CCC(C)(C)NC4)ncc3C(F)(F)F)c[nH]c2c1P(C)(C)=O [Compound T-103]
50 to 500 | COC(=O)Nc1ccc2c(-c3nc(O[C@H]4CCCNC4)ncc3C(F)(F)F)c[nH]c2c1Br [Example T-02]
> 500 | COC(=O)Nc1ccc2c(-c3nc(N[C@H]4CCC[C@H](O)C4)ncc3C(F)(F)F)c[nH]c2c1Br [Example T-30]
50 to 500 | CN(C)C(=O)n1cc(-c2nc(N[C@H]3CCC(C)(C)NC3)ncc2C(F)(F)F)c2ccc(O)cc21 [Example T-33]
< 50 | COC(=O)Nc1ccc2c(-c3nc(N[C@H]4CCC5(CC5)NC4)ncc3C(F)(F)F)c[nH]c2c1OC [Example T-38]
50 to 500 | COC(=O)Nc1ccc2c(-c3nc(N[C@H]4CCNC4)ncc3C(F)(F)F)c[nH]c2c1Br [Example T-39]
50 to 500 | COC(=O)Nc1ccc2c(-c3nc(N[C@H]4CCCNC4)ncc3C(F)(F)F)cn(C)c2c1Br [Example T-40]
50 to 500 | COC(=O)N(C)c1ccc2c(-c3nc(N[C@H]4CCCNC4)ncc3C(F)(F)F)cn(C)c2c1Br [Example T-41]
50 to 500 | CCCOC(=O)Nc1ccc2c(-c3nc(N[C@H]4CCCNC4)ncc3C(F)(F)F)c[nH]c2c1Br [Example T-45]
50 to 500 | O=C1OCCN1c1ccc2c(-c3nc(N[C@H]4CCNC4)ncc3C(F)(F)F)c[nH]c2c1Br [Example T-46]
50 to 500 | O=C1CCCN1c1ccc2c(-c3nc(N[C@H]4CCNC4)ncc3C(F)(F)F)c[nH]c2c1Br [Example T-47]
< 50 | O=C1OCCN1c1ccc2c(-c3nc(N[C@H]4CCCNC4)ncc3C(F)(F)F)c[nH]c2c1 [Example T-49]
> 500 | COC(=O)Nc1ccc2c(-c3nc(N[C@H]4CC[C@@H](N)C4)ncc3C(F)(F)F)c[nH]c2c1Br [Example T-53]
50 to 500 | COC(=O)Nc1ccc2c(-c3nc(N[C@H]4CC[C@H](N)C4)ncc3C(F)(F)F)c[nH]c2c1Br [Example T-54]
> 500 | COC(=O)Nc1ccc2c(-c3nc(N[C@@H]4CC[C@H](N)C4)ncc3C(F)(F)F)c[nH]c2c1Br [Example T-55]
50 to 500 | COC(=O)Nc1ccc2c(-c3nc(N[C@@H]4CC[C@@H](N)C4)ncc3C(F)(F)F)c[nH]c2c1Br [Example T-56]
50 to 500 | COC(=O)Nc1ccc2c(-c3nc(N[C@@H]4CCC[C@H]4N)ncc3C(F)(F)F)c[nH]c2c1Br [Example T-57]
50 to 500 | COC(=O)Nc1ccc2c(-c3nc(N[C@@H]4CCC[C@@H]4N)ncc3C(F)(F)F)c[nH]c2c1Br [Example T-58]
50 to 500 | COC(=O)Nc1ccc2c(-c3nc(N[C@H]4CCC[C@H]4N)ncc3C(F)(F)F)c[nH]c2c1Br [Example T-59]

IC50 [nM] | Compound
50 to 500 | COC(=O)Nc1ccc2c(-c3nc(N[C@@H]4CCNC4)ncc3C(F)(F)F)c[nH]c2c1Br [Example T-61]
< 50 | COC(=O)Nc1ccc2c(-c3nc(N[C@H]4CCCNC4)ncc3Cl)c[nH]c2c1Br [Example T-71]
< 50 | COC(=O)Nc1ccc2c(-c3nc(N[C@H]4CCC(C)(C)NC4)ncc3Cl)c[nH]c2c1Br [Example T-72]
< 50 | COC(=O)Nc1ccc2c(-c3nc(N[C@H]4CCCNC4)ncc3C)c[nH]c2c1Br [Example T-76]
< 50 | CCc1cnc(N[C@H]2CCCNC2)nc1-c1c[nH]c2c(Br)c(NC(=O)OC)ccc12 [Example T-77]
50 to 500 | COC(=O)Nc1ccc2c(-c3nc(N[C@H]4CCCNC4)ncc3C(C)C)c[nH]c2c1Br [Example T-78]
< 50 | COC(=O)Nc1ccc2c(-c3nc(N[C@H]4CCCNC4)ncc3C(F)(F)F)c[nH]c2c1C1CCOC1 (stereo partly shown) [Example T-83]
< 50 | COC(=O)Nc1ccc2c(-c3nc(N[C@H]4CCC(C)(C)NC4)ncc3Cl)c[nH]c2c1C(F)(F)F [Example T-87]
< 50 | COC(=O)Nc1ccc2c(-c3nc(N[C@H]4CCC(C)(C)NC4)ncc3C(F)(F)F)c[nH]c2c1SC(C)C [Example T-89]
< 50 | C#Cc1c(NC(=O)OC)ccc2c(-c3nc(N[C@H]4CCC(C)(C)NC4)ncc3C(F)(F)F)c[nH]c12 [Example T-90]
50 to 500 | COC(=O)Nc1ccc2c(-c3nc(N[C@H]4CCC(C)(C)NC4)ncc3C(F)(F)F)c[nH]c2c1OC1CCCC1 [Example T-92]
< 50 | COC(=O)Nc1ccc2c(-c3nc(N[C@H]4CCC(C)(C)NC4)ncc3C(F)(F)F)c[nH]c2c1OC1CCC1 [Example T-93]
< 50 | COC(=O)Nc1ccc2c(-c3nc(N[C@H]4CCC(C)(C)NC4)ncc3C(F)(F)F)c[nH]c2c1OC(C)C [Example T-94]
< 50 | CCOc1c(NC(=O)OC)ccc2c(-c3nc(N[C@H]4CCC(C)(C)NC4)ncc3C(F)(F)F)c[nH]c12 [Example T-95]
< 50 | COC(=O)Nc1ccc2c(-c3nc(N[C@H]4CCC(C)(C)NC4)ncc3C(F)(F)F)c[nH]c2c1CC(F)(F)F [Example T-97]
< 50 | COC(=O)Nc1ccc2c(-c3nc(N[C@@H]4CNCC(C)(C)C4)ncc3C(F)(F)F)c[nH]c2c1C(F)(F)F [Example T-101]
< 50 | COC(=O)Nc1ccc2c(-c3nc(N[C@H]4CCCN(C)C4)ncc3C(F)(F)F)c[nH]c2c1C(F)(F)F [Example T-111]
< 50 | CCN[C@H]1CCC[C@@H]1Nc1ncc(C(F)(F)F)c(-c2c[nH]c3c(Br)c(NC(=O)OC)ccc23)n1 [Example T-115]
< 50 | CCN[C@H]1CCC[C@@H]1Nc1ncc(C(F)(F)F)c(-c2c[nH]c3c(C(F)(F)F)c(NC(=O)OC)ccc23)n1 [Example T-117]
< 50 | COC(=O)Nc1ccc2c(-c3nc(N[C@H]4CCCNC4)ncc3C(F)(F)F)c[nH]c2c1OC(F)F [Example T-121]

IC50 [nM] | Compound
< 50 | COC(=O)Nc1ccc2c(-c3nc(N[C@H]4CCCNC4)ncc3Cl)c[nH]c2c1OC(F)(F)F [Example T-123]
< 50 | COC(=O)Nc1ccc2c(-c3nc(NC4CNC5CC5C4)ncc3C(F)(F)F)c[nH]c2c1Cl (stereo not shown) [Example T-126]
50 to 500 | COC(=O)Nc1ccc2c(-c3nc(N[C@H]4CC=C(C)NC4)ncc3C(F)(F)F)c[nH]c2c1OC [Example T-133]
50 to 500 | COC(=O)Nc1ccc2c(-c3nc(N[C@H]4CC[C@H](C)NC4)ncc3C(F)(F)F)c[nH]c2c1OC [Example T-141]
50 to 500 | COC(=O)Nc1ccc2c(-c3nc(N[C@H]4CC[C@H](C)NC4)ncc3C(F)(F)F)c[nH]c2c1Br [Example T-144]
50 to 500 | COC(=O)Nc1ccc2c(-c3nc(N[C@H]4CCC(C)NC4)ncc3C(F)(F)F)c[nH]c2c1Cl (stereo partly shown) [Example T-145]
50 to 500 | COC(=O)Nc1ccc2c(-c3nc(N[C@H]4CC[C@H](C)NC4)ncc3C(F)(F)F)c[nH]c2c1Cl [Example T-147]
50 to 500 | COC(=O)Nc1ccc2c(-c3nc(N[C@H]4CC=C(C)NC4)ncc3C(F)(F)F)c[nH]c2c1Cl [Example T-148]
50 to 500 | COC(=O)Nc1ccc2c(-c3nc(N[C@H]4CC[C@H](C)NC4)ncc3C(F)(F)F)c[nH]c2c1OCC(F)(F)F [Example T-152]
< 50 | COC(=O)Nc1ccc2c(-c3nc(N[C@H]4CCCNC4)ncc3C(F)(F)F)c[nH]c2c1C(C)(C)O [Example T-157]
< 50 | CC(=O)Nc1ccc2c(-c3nc(N[C@H]4CCCNC4)ncc3C(F)(F)F)c[nH]c2c1C(C)(C)O [Example T-158]
< 50 | COC(=O)N(C)c1ccc2c(-c3nc(N[C@H]4CCCNC4)ncc3C(F)(F)F)c[nH]c2c1OC [Example T-166]
< 50 | COC(=O)Nc1ccc2c(-c3nc(N[C@H]4CCCN(C)C4)ncc3C(F)(F)F)c[nH]c2c1OC [Example T-167]
< 50 | COC(=O)N(C)c1ccc2c(-c3nc(N[C@H]4CCCNC4)ncc3C(F)(F)F)c[nH]c2c1C(C)(F)F [Example T-170]
< 50 | COC(=O)Nc1ccc2c(-c3nc(N[C@H]4CCCN(C)C4)ncc3C(F)(F)F)c[nH]c2c1C(C)(F)F [Example T-171]
< 50 | COC(=O)Nc1ccc2c(-c3nc(N[C@H]4CCCN(C)C4)ncc3C(F)(F)F)c[nH]c2c1C(F)(F)F [Example T-172]
< 50 | COC(=O)Nc1ccc2c(-c3nc(N[C@H]4CCCN(C)C4)ncc3C(F)(F)F)c[nH]c2c1OC(F)F [Example T-173]
< 50 | COC(=O)Nc1ccc2c(-c3nc(N[C@H]4CCCN(C)C4)ncc3C(F)(F)F)c[nH]c2c1C1CC1 [Example T-174]
< 50 | COC(=O)N(C)c1ccc2c(-c3nc(N[C@H]4CCCNC4)ncc3C(F)(F)F)c[nH]c2c1C1CC1 [Example T-175]

Compound | IC50 [nM]
CN(C)C(=O)Oc1ccc2c(-c3nc(N[C@H]4CCC(C)(C)NC4)ncc3C(F)(F)F)c[nH]c2c1 [Example T-32] | 50 to 500
